{"source": "paper PMC9067978", "about": "“Design, synthesis, and molecular docking studies of novel pomalidomide-based PROTACs as potential anti-cancer agents targeting EGFR^WT and EGFR^T790M” (Journal of Enzyme Inhibition and Medicinal Chemistry, 2022)", "key": {"MCF-7": {"system": "MCF-7", "test": "Annexin V/propidium iodide apoptosis assay, MCF-7", "assay_type": "cell-based, human", "conditions": "3.92 µM, 24 hours", "description": "The double staining Annexin V/propidium iodide technique was performed to assess the mechanism of cell death and apoptosis-inducing activity.[46] […] As shown in (Figure 7 (A and B).\nThe negative control was chosen to be DMSO. The cells were then collected and washed twice in PBS. The cells were separated using centrifugation. An apoptosis detection kit (BD Biosciences, SanJose, CA) was used in this investigation. Following the manufacturer’s instructions, the cells were dyed with Annexin V-FITC and propidium iodide (PI) in the binding buffer for 20 minutes at 37 °C in the darkness. A flow cytometer was used to assess the binding of Annexin V-FITC and PI. The frequencies in all quadrants were investigated using the Flowjo program.[53]"}, "A549": {"system": "A549", "test": "MTT anti-proliferative assay, A549", "protocol": "The anti-proliferative activity was quantified in the following way. At a density of 3–8 × 10^3 cells per well, human cancer cell lines were introduced to 96-well plates. The wells were then incubated at 37 °C for 12 hours in 5% CO2 incubator. To determine the DMSO content, the culture media was swapped with 0.1 ml of fresh medium containing graded amounts of the test compounds for each well. Incubation time for the wells was two days. The cells were then cultured in 100 µl MTT solution (5 µg ml^−1) for another 4 hours in each well.\nThe absorbance of each well was measured at 490 nm with an automated ELISA reader system (TECAN, CHE) after MTT-formazan crystals were dissolved in 100 µl of DMSO. The IC50 values were calculated using nonlinear regression fitting models (Graph Pad, Prism Version 5). The results were expressed as means ± SD and were based on the average of three separate, duplicate trials."}}}
{"smiles": "Cn1c(=O)c(C(=O)NNCCOCCOCC(=O)Nc2cccc3c2C(=O)N(C2CCC(=O)NC2=O)C3=O)nc2ccccc21", "note": "(centres unmarked) [Compound 16, N-(2-(2,6-dioxopiperidin-3-yl)-1,3-dioxoisoindolin-4-yl)-2-(2-(2-(2-(4-methyl-3-oxo-3,4-dihydroquinoxaline-2-carbonyl) hydrazinyl)ethoxy)ethoxy) acetamide]", "values": [{"measurement": "cellular apoptosis, early and late, times vs control, MCF-7", "setting": "MCF-7", "result": "~9", "unit": "times"}, {"measurement": "early apoptosis ratio, MCF-7", "setting": "MCF-7", "result": 4.18, "unit": "%"}, {"measurement": "late apoptosis ratio, MCF-7", "setting": "MCF-7", "result": 5.07, "unit": "%"}, {"measurement": "IC50", "setting": "A549; Homo sapiens, A549, read-out: IC50 A549", "result": "2690 ± 90", "unit": "nM"}, {"measurement": "folds more active than erlotinib, A549", "setting": "A549; ratio of cytotoxic IC50 to erlotinib", "result": 7.18, "unit": "folds"}]}
